Reference: patent US20230079389A1, “COMPOSITION FOR USE IN PREVENTION OR TREATMENT OF OESOPHAGEAL DISEASES LINKED TO EPITHELIAL BARRIER DEFECTS” (THELIAL B.V., priority 2020, published 2023)
Like-named read-outs stand apart in the source and are kept apart here.

Key:
Par6 = test: theLiTE assay: distribution of GFP-tagged Par6 in live follicular epithelia; settings: for Par6 modulation (distribution of Par6 protein): live follicular epithelia of Drosophila egg chamber, Par6-GFP
Source text: The present inventors used a unique approach in order to identify compounds which reinforce the TJ system via the control of TJ initiation. Par6 was selected as the biological target; it acts as a regulator of tight junction initiation. Par6 has a polar distribution, with a defined zone of high abundance at one end of the cell. This Par6 distribution is key to the biological function, not just the absolute Par6 protein level.
Standard tools for RNA and protein level measurement are not adequate to discover compounds which target Par6 and the present inventors devised and implemented an assay where the distribution of Par6 in living tissues can be monitored: Thelial Live Targeted Epithelia (theLiTE™; U.S. Pat. No. 9,416,391).
The technology of theLITE™ allows monitoring the distribution of Par6—an intracellular protein that controls tight junction assembly. The assay was performed in live follicular epithelia of the egg chamber of the fruit fly Drosophila. Par6 was tagged with a green fluorescence protein (GFP) and its distribution within the cell was monitored by the GFP signal. […] This protein distribution is key to the biological function, not just the absolute protein level.
In theLiTE, the present inventors tested whether compounds modulate the distribution of Par6 protein in live follicular epithelia. In theLiTE more than 20 live egg chambers were exposed to test each compound and monitored for Par6 distribution after a set incubation time; any positive compounds were tested in three separate runs of experiments and over a broad range of concentrations. The full method is disclosed in the US patent document. […] The positive control in FIG. 2, indicated with a “+” sign, is Antimycin A, at a concentration of 40 micromolar. The negative control, indicated with a “−” sign is the solvent medium (Insect cell culture medium plus 10% dimethyl sulfoxide).

[1] = system: subjects suffering from GERD; test: 6-weeks treatment of GERD subjects, synergy between active compounds; type: in vivo, human; settings: for subjects reporting reduction in severity of GERD, as well as reduced usage of PPIs: 500 mg twice daily oral, 14 patients per group; for effect on GERD (in words): twice daily oral
Experimental: In a 6-weeks treatment, 50 subjects suffering from GERD receive a twice daily oral dose (1 hour before the morning and the evening meal) with either • Quercetin (500 mg); • Myricetin (500 mg); • Quercetin (500 mg) and Myricetin (500 mg); • Quercetin (500 mg) and Genistein (300 mg); • Myricetin (500 mg) and Berberine (750 mg).

[2] = system: patients with non-erosive Gastro esophageal Reflux Disease (GERD); settings: cited from earlier work

Compound | Par6 modulation (distribution of Par6 protein) (Par6) | toxicity (Par6; screen of over 2000 compounds) | subjects reporting reduction in severity of GERD, as well as reduced usage of PPIs [1] | effect on GERD (in words) [1] | toxicity (Par6) | esophageal epithelial barrier function, resistance to injury upon contact with hydrochloric acid ([2]; 500 mg orally twice daily (tablet) for 6 weeks, endoscopic biopsies before and after) | heartburn symptom improvement ([2]; 14 GERD sufferers, twice 500 mg daily, 6-week period)
COc1ccc2cc3[n+](cc2c1OC)CCc1cc2c(cc1-3)OCO2 [Berberine, 5,6-dihydro-9,10-dimehtoxybenzo[g]-1,3-benzodioxolo[5,6-a]quinolizinium] | do not modulate Par6 |  |  |  |  |  | 
O=c1c(-c2ccc(O)cc2)coc2cc(O)cc(O)c12 [Genistein, 5,7-dihydro-3-(4-hydroxyphenyl)chromen-4-one] | do not modulate Par6 |  |  |  |  |  | 
O=c1c(O)c(-c2cc(O)c(O)c(O)c2)oc2cc(O)cc(O)c12 [Myricetin, 3,5,7-Trihydroxy-2-(3,4,5-trihydroxyphenyl)-4H-1-benzopyran-4-one] | potent Par6 modulation | low toxicity | 10 subjects report reduction in severity of GERD, | reduction of GERD severity |  |  | 
O=c1c(O)c(-c2ccc(O)c(O)c2)oc2cc(O)cc(O)c12 [Quercetin, 2-(3,4-dihydroxyphenyl)-3,5,7-trihydroxychromen-4-one] | potent Par6 modulation |  | 12 subjects report reduction in severity of GERD, | reduction of GERD severity | low toxicity | increases esophageal epithelial barrier function | no report of consistent effects
Antimycin A [reference compound] | most potent compound in the test | toxic |  |  |  |  | 
